Measured values reported in paper PMC3446843 (Toxicological Sciences, 2012).

Test system: isolated mouse liver mitochondria
Test: Loss of mitochondrial transmembrane potential
Format: biochemical
Details: 20% of maximal loss of ΔΨm (50µM mClCCP = 100%), 30-min incubation

| Compound | ΔΨm loss EC20 |
| --- | --- |
| CCCCc1oc2ccccc2c1C(=O)c1cc(I)c(OCCN(CC)CC)c(I)c1 [Amiodarone] | 2.6 µM |
| CC1(C)S[C@@H]2[C@H](NC(=O)[C@H](N)c3ccc(O)cc3)C(=O)N2[C@H]1C(=O)O [Amoxicillin] | > 400 µM |
| CC1(C)S[C@@H]2[C@H](NC(=O)[C@H](N)c3ccccc3)C(=O)N2[C@H]1C(=O)O [Ampicillin] | > 400 µM |
| CC(C)c1c(C(=O)Nc2ccccc2)c(-c2ccccc2)c(-c2ccc(F)cc2)n1CC[C@@H](O)C[C@@H](O)CC(=O)O [Atorvastatin] | 4.3 µM |
| CS(=O)(=O)OCCCCOS(C)(=O)=O [Busulfan] | 483.1 µM |
| O=C(/C=C/c1ccc(O)c(O)c1)c1ccc(O)cc1O [Butein] | > 200 µM |
| O=C(O)c1cn(C2CC2)c2cc(N3CCNCC3)c(F)cc2c1=O [Ciprofloxacin] | > 400 µM |
| Clc1ccccc1C(c1ccccc1)(c1ccccc1)n1ccnc1 [Clotrimazole] | 23.9 µM |
| O=c1ccc2ccccc2o1 [Coumarin] | 0.9 µM |
| Cc1nc(Nc2ncc(C(=O)Nc3c(C)cccc3Cl)s2)cc(N2CCN(CCO)CC2)n1 [Dasatinib] | 20.8 µM |
| CC1=NS(=O)(=O)c2cc(Cl)ccc2N1 [Diazoxide] | > 200 µM |
| O=C(O)c1cc(-c2ccc(F)cc2F)ccc1O [Diflunisal] | 17.9 µM |
| CCN(CC)C(=S)SSC(=S)N(CC)CC [Disulfiram] | 12.6 µM |
| COc1cccc2c1C(=O)c1c(O)c3c(c(O)c1C2=O)C[C@@](O)(C(=O)CO)C[C@@H]3O[C@H]1C[C@H](N)[C@H](O)[C@H](C)O1 [Doxorubicin] | 8.9 µM |
| Clc1ccc(COC(Cn2ccnc2)c2ccc(Cl)cc2Cl)cc1 (stereo not drawn) [Econazole] | 13.3 µM |
| O=C(O)c1ccccc1Nc1cccc(C(F)(F)F)c1 [Flufenamic acid] | 42.5 µM |
| CC(C)C(=O)Nc1ccc([N+](=O)[O-])c(C(F)(F)F)c1 [Flutamide] | 27.0 µM |
| COc1cc2ncnc(Nc3ccc(F)c(Cl)c3)c2cc1OCCCN1CCOCC1 [Gefitinib] | 9.6 µM |
| O=c1c(-c2ccc(O)cc2)coc2cc(O)cc(O)c12 [Genistein] | 150.6 µM |
| CNC(C)C1CCC(N)C(OC2C(N)CC(N)C(OC3OCC(C)(O)C(NC)C3O)C2O)O1 (stereo not drawn) [Gentamicin] | 49.0 µM |
| CCC1=C(C)CN(C(=O)NCCc2ccc(S(=O)(=O)NC(=O)N[C@H]3CC[C@H](C)CC3)cc2)C1=O [Glimepiride] | 94.6 µM |
| Cc1cc2c(C(C)C)c(O)c(O)c(C=O)c2c(O)c1-c1c(C)cc2c(C(C)C)c(O)c(O)c(C=O)c2c1O [Gossypol] | 1.0 µM |
| CC(C)=CCC[C@]1(C)[C@@H](CC=C(C)C)C[C@@]2(CC=C(C)C)C(=O)[C@]1(C(=O)C(C)C)C(=O)C(CC=C(C)C)=C2O [Hyperforin] | 0.1 µM |
| Cc1ccc(NC(=O)c2ccc(CN3CCN(C)CC3)cc2)cc1Nc1nccc(-c2cccnc2)n1 [Imatinib] | 25.7 µM |
| CN(C)CCCN1c2ccccc2CCc2ccccc21 [Imipramine] | 74.8 µM |
| COc1ccc2c(c1)c(CC(=O)O)c(C)n2C(=O)c1ccc(Cl)cc1 [Indomethacin] | 443.2 µM |

| Compound | ΔΨm loss EC20 |
| --- | --- |
| NNC(=O)c1ccncc1 [Isoniazide] | 504.6 µM |
| O=C(O)c1nn(Cc2ccc(Cl)cc2Cl)c2ccccc12 [Lonidamine] | 138.1 µM |
| Cc1cccc(Nc2ccccc2C(=O)O)c1C [Mefenamic acid] | 49.7 µM |
| Sc1ncnc2nc[nH]c12 [Mercaptopurine] | 406.9 µM |
| CO[C@@]12[C@H](COC(N)=O)C3=C(C(=O)C(C)=C(N)C3=O)N1C[C@@H]1N[C@@H]12 [Mitomycin C] | > 200 µM |
| O=C1c2c(O)ccc(O)c2C(=O)c2c(NCCNCCO)ccc(NCCNCCO)c21 [Mitoxantrone] | 7.00 µM |
| Cc1c(O)cccc1C(=O)N[C@@H](CSc1ccccc1)[C@H](O)CN1C[C@H]2CCCC[C@H]2C[C@H]1C(=O)NC(C)(C)C [Nelfinavir] | 6.3 µM |
| CO[C@]12C[C@@H](COC(=O)c3cncc(Br)c3)CN(C)[C@@H]1Cc1cn(C)c3cccc2c13 [Nicergoline] | 82.6 µM |
| Cc1cn(-c2cc(NC(=O)c3ccc(C)c(Nc4nccc(-c5cccnc5)n4)c3)cc(C(F)(F)F)c2)cn1 [Nilotinib] | 11.5 µM |
| CS(=O)(=O)Nc1ccc([N+](=O)[O-])cc1Oc1ccccc1 [Nimesulide] | 10.1 µM |
| CCCCC1C(=O)N(c2ccccc2)N(c2ccccc2)C1=O [Phenylbutazone] | 140.2 µM |
| CC[C@H](C)C(=O)O[C@H]1C[C@H](O)C=C2C=C[C@H](C)[C@H](CC[C@@H](O)C[C@@H](O)CC(=O)O)[C@H]21 [Pravastatin] | > 200 µM |
| CCCc1cc(=O)[nH]c(=S)[nH]1 [Propylthiouracil] | 391.5 µM |
| Oc1ccc(/C=C/c2cc(O)cc(O)c2)cc1 [Resveratrol] | 395.4 µM |
| CO[C@H]1/C=C/O[C@@]2(C)Oc3c(C)c(O)c4c(O)c(c(/C=N/N5CCN(C)CC5)c(O)c4c3C2=O)NC(=O)/C(C)=C\C=C\[C@H](C)[C@H](O)[C@@H](C)[C@@H](O)[C@@H](C)[C@H](OC(C)=O)[C@@H]1C [Rifampicin] | > 800 µM |
| CC(C)c1nc(CN(C)C(=O)N[C@H](C(=O)N[C@@H](Cc2ccccc2)C[C@H](O)[C@H](Cc2ccccc2)NC(=O)OCc2cncs2)C(C)C)cs1 [Ritonavir] | 24.8 µM |
| CC[C@H]1OC(=O)[C@H](C)[C@@H](O[C@H]2C[C@@](C)(OC)[C@@H](O)[C@H](C)O2)[C@H](C)[C@@H](O[C@@H]2O[C@H](C)C[C@H](N(C)C)[C@H]2O)[C@](C)(O)C[C@@H](C)/C(=N\OCOCCOC)[C@H](C)[C@@H](O)[C@]1(C)O [Roxithromycin] | 244.8 µM |
| CNC(=O)c1cc(Oc2ccc(NC(=O)Nc3ccc(Cl)c(C(F)(F)F)c3)cc2)ccn1 [Sorafenib] | 0.5 µM |
| [H]/N=C(/N)N[C@H]1[C@H](O)[C@@H](O)[C@H](O[C@@H]2O[C@@H](C)[C@](O)(C=O)[C@H]2O[C@@H]2O[C@@H](CO)[C@H](O)[C@@H](O)[C@@H]2NC)[C@@H](N/C(N)=N\[H])[C@@H]1O [Streptomycin] | 78.8 µM |
| CCN(CC)CCNC(=O)c1c(C)[nH]c(/C=C2\C(=O)Nc3ccc(F)cc32)c1C [Sunitinib] | 23.2 µM |
| CC/C(=C(\c1ccccc1)c1ccc(OCCN(C)C)cc1)c1ccccc1 [Tamoxifen] | 2.9 µM |
| CN(C/C=C/C#CC(C)(C)C)Cc1cccc2ccccc12 [Terbinafine] | 12.5 µM |
| Clc1ccccc1CN1CCc2sccc2C1 [Ticlopidine] | 50.5 µM |
| Cc1ccc(C(=O)c2cc(O)c(O)c([N+](=O)[O-])c2)cc1 [Tolcapone] | 3.9 µM |
| Cc1c(Cl)cccc1Nc1ccccc1C(=O)O [Tolfenamic acid] | 7.1 µM |
| COc1cccc(C2(O)CCCCC2CN(C)C)c1 (stereo not drawn) [Tramadol] | 263.8 µM |

Same assay, conditions: ΔΨm and respiration

| Compound | concentrations collapsing the ΔΨm and altering the mitochondrial respiration |
| --- | --- |
| Cc1c(O)cccc1C(=O)N[C@@H](CSc1ccccc1)[C@H](O)CN1C[C@H]2CCCC[C@H]2C[C@H]1C(=O)NC(C)(C)C [Nelfinavir] | lower than 50 μM |
| CC(C)c1nc(CN(C)C(=O)N[C@H](C(=O)N[C@@H](Cc2ccccc2)C[C@H](O)[C@H](Cc2ccccc2)NC(=O)OCc2cncs2)C(C)C)cs1 [Ritonavir] | lower than 50 μM |
